Laboratory results taken from ChEMBL document CHEMBL1201862, “PubChem BioAssay data set” (2004).
Blank lines part the entries; values can stand above or below the compound they belong to. Calls of active or inactive are those of the source.

How the values were obtained:
[1] = tested on: HEK293; experiment: NOD2 signaling inhibitors in MDP-stimulated cells, cell-based, uHTS, luminescence (AID 2001); assay type: functional; conditions: Homo sapiens
[2] = tested on: HEK293; experiment: cells; assay type: functional, cell-based; conditions: Homo sapiens
[3] = tested on: HEK293; experiment: cells; assay type: functional, cell-based; conditions: Homo sapiens; remark: listed apart in the source
[4] = tested on: HEK293; experiment: cells; assay type: functional, cell-based; conditions: Homo sapiens; remark: listed apart in the source
[5] = tested on: HEK293; experiment: inhibition of NOD1-driven NF-kB reporter – cell-based, luminescence, uHTS, primary screen (AID 1578); assay type: functional; conditions: Homo sapiens
[6] = target: Nucleotide-binding oligomerization domain-containing protein 2 (Homo sapiens, UniProt Q9HC29); experiment: inhibition of NOD2-driven NF-kB reporter – cell-based, luminescence, uHTS, HEK293 (AID 1566); assay type: functional
[7] = target: Dual specificity protein phosphatase 3 (Homo sapiens, UniProt P51452); experiment: inhibition constants for human DUSP3 – biochemical, colorimetric, SAR follow-up (AID 2004)
[8] = tested on: Saccharomyces cerevisiae; experiment: S. cerevisiae Caspase-1/ASC signal blockers IC50, NALP1 inhibitor project selectivity test (AID 488863); assay type: functional, organism-based
[9] = target: NACHT, LRR and PYD domains-containing protein 1 (Homo sapiens, UniProt Q9C000); experiment: NALP1 inhibitors in yeast, dose response, luminescent (AID 488860); assay type: functional
[10] = target: T1, Dual specificity protein phosphatase 6 (Rattus norvegicus, UniProt Q64346)
T1 sequence (Q64346 whole entry): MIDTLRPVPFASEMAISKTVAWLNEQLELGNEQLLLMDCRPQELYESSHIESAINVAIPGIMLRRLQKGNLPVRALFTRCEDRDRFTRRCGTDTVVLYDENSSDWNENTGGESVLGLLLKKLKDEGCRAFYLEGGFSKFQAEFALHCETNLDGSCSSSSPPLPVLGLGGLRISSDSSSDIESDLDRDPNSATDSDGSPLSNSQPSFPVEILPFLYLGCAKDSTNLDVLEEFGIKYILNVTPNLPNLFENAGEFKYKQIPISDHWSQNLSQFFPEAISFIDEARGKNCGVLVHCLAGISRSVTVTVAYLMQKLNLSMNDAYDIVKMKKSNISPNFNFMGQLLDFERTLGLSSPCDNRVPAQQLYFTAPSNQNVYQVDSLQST

[11] = target: T2, Tyrosine-protein phosphatase non-receptor type 7 (Homo sapiens, UniProt P35236); assay type: functional
T2 sequence (P35236 whole entry): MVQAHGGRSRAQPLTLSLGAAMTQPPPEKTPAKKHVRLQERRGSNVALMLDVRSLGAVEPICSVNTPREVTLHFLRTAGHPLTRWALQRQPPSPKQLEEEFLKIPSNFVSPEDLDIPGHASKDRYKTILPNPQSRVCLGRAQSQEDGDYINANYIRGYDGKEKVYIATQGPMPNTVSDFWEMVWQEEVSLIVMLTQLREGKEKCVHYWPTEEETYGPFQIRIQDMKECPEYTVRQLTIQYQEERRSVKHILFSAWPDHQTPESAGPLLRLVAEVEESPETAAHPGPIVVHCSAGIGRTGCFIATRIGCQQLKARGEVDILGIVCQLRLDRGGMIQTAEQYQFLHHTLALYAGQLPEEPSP

[12] = target: T1, Dual specificity protein phosphatase 6; assay type: functional
[13] = target: Glyceraldehyde-3-phosphate dehydrogenase (Homo sapiens, UniProt P04406)
[14] = target: Estrogen receptor beta (Homo sapiens, UniProt Q92731); experiment: blockers of SRC-3 recruitment to ERβ – biochemical, ELISA, streptavidin-HRP readout, orthogonal assay, confirmation (AID 1060)
[15] = target: Induced myeloid leukemia cell differentiation protein Mcl-1 (Homo sapiens, UniProt Q07820); assay type: functional
[16] = target: T2, Tyrosine-protein phosphatase non-receptor type 7; experiment: redox-active compounds inhibiting HePTP phosphatase – biochemical, fluorescence, mechanism study (AID 2068); assay type: functional
[17] = target: Ephrin type-A receptor 4 (Mus musculus, UniProt Q03137); experiment: EphA4 ligand-binding antagonists – biochemical, colorimetric, mouse EphA4, primary screen (AID 689); assay type: functional
[18] = target: Genome polyprotein (dengue virus type 2, UniProt P29990); experiment: flavivirus cap methylation enzyme inhibition – biochemical, confirmation dose response, primary screen (AID 588689); assay type: functional
[19] = target: Alkaline phosphatase, placental type (Homo sapiens, UniProt P05187); experiment: human placental alkaline phosphatase inhibition – biochemical, luminescence, confirmation (AID 1512); assay type: functional
[20] = target: T3, Alkaline phosphatase, tissue-nonspecific isozyme (Homo sapiens, UniProt P05186); experiment: potency against alkaline phosphatase TNAP – biochemical, luminescent, dose response, SAR follow-up (AID 1056)
T3 sequence (P05186 whole entry): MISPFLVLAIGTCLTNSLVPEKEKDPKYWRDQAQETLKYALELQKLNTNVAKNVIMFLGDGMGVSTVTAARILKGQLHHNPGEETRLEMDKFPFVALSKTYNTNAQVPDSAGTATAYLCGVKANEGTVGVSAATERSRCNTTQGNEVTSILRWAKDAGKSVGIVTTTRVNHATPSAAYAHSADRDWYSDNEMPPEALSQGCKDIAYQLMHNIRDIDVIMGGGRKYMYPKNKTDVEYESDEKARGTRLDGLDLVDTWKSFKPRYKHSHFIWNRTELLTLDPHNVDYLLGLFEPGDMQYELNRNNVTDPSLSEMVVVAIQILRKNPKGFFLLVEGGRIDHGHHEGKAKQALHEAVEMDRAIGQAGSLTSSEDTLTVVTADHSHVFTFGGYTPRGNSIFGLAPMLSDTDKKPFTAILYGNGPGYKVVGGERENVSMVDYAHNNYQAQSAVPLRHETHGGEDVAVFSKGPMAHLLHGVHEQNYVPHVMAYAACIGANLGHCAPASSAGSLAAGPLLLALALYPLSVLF

[21] = viability of uninfected HEp-2 cells – cell-based, HTS, cytotoxicity control for RSV inhibitor project, dose response (AID 2410); assay type: functional; conditions: human respiratory syncytial virus
[22] = target: Neurotensin receptor type 1 (Homo sapiens, UniProt P30989); assay type: functional;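 further: Image-based confirmatory dose-response assay measuring agonist activity at NTR1; NTR1-expressing U2OS osteosarcoma cells imaged for beta-arrestin GFP spot formation; agonist potency where compounds increase beta-arrestin recruitment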
[23] = target: Cytochrome P450 3A4 (Homo sapiens, UniProt P08684);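 further: CYP3A4 tested as one member of a cytochrome P450 panel screen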
[24] = target: T4, Heat shock factor protein 1 (Mus musculus, UniProt P38532); experiment: enhancement of HSF1-driven luciferase signal – cell-based, NIH3T3, luminescence, dose retest, confirmation (AID 435004); assay type: functional;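 further: stress induced by proteasome inhibitor MG132 added 30 min after compound; luciferase reporter driven by HSF1 response element in NIH3T3 cells; actives raise luminescence as potentiators of the MG132 stress response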
T4 sequence (P38532 whole entry): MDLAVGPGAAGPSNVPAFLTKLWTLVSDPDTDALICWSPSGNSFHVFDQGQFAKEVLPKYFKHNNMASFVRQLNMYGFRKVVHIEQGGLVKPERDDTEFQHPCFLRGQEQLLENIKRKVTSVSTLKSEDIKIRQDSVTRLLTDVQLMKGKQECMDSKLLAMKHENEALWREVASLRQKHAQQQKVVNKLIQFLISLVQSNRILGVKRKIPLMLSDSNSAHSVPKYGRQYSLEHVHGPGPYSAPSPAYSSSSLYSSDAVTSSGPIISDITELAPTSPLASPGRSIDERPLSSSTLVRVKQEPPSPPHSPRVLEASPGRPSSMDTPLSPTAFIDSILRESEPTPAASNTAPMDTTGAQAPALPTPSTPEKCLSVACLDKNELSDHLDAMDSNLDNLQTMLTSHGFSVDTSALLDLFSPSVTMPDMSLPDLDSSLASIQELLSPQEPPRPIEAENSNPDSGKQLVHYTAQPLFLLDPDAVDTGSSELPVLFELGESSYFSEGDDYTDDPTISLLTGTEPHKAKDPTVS

[25] = tested on: Streptococcus; experiment: GAS UMAA2166 growth inhibition – luminescence, BacTiterGlo, counter-screen for streptokinase expression inhibitor project, dose response (AID 1915); assay type: functional, organism-based; conditions: Streptococcus;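 further: potency for reduction of bacterial viability or growth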
[26] = tested on: Streptococcus sp. 'group A'; experiment: Streptococcus pyogenes SK(-)GAS viability under kanamycin – luminescence, BacTiterGlo, confirmation, counter-screen for streptokinase expression inhibitor project, dose response (AID 1900); assay type: functional, organism-based; conditions: Streptococcus sp. 'group A'
[27] = target: T5, Apoptotic protease-activating factor 1 (Homo sapiens, UniProt O14727); assay type: functional
T5 sequence (O14727 whole entry): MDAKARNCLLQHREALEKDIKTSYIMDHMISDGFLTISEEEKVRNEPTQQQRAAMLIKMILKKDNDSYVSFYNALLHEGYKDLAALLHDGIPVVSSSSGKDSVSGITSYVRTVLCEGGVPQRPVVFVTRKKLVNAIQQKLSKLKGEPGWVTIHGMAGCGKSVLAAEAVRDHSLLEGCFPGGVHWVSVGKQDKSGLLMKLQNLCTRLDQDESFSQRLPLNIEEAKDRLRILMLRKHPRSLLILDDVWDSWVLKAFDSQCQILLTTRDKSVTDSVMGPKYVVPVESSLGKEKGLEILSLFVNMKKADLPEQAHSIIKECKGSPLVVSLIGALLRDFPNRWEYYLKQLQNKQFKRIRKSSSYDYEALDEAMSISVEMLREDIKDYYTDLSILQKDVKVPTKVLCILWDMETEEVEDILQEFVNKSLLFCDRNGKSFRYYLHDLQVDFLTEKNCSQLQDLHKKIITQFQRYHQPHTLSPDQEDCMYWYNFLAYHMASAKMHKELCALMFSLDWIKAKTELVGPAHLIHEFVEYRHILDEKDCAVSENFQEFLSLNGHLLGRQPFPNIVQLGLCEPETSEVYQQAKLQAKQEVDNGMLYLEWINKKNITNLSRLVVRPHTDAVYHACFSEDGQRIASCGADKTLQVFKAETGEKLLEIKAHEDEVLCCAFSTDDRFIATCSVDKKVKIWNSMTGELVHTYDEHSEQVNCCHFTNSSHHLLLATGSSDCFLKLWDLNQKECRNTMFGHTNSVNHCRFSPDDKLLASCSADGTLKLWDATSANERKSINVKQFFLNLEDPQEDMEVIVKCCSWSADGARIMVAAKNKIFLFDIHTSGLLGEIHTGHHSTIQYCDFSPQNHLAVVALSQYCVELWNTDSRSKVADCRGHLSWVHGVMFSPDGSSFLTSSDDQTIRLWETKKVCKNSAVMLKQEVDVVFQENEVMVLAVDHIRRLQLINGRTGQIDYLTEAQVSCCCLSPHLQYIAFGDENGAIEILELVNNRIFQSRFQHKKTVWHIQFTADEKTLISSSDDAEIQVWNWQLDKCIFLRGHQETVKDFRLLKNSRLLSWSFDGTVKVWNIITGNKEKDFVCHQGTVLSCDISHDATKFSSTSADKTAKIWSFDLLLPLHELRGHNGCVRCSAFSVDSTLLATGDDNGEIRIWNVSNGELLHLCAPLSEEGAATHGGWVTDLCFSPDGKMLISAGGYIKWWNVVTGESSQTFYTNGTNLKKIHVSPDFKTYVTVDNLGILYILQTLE

[28] = tested on: INS1; experiment: INS-1E survival protection against cytokine death – cell-based, luminescence, retest, dose response (AID 449756); assay type: functional; conditions: Rattus norvegicus;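 further: cell death triggered by IL-1 beta plus TNF-alpha plus IFN-gamma mixture; protective hits raise ATP signal compared with cytokine alone wells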

Glyceraldehyde-3-phosphate dehydrogenase, sequence (P04406 whole entry): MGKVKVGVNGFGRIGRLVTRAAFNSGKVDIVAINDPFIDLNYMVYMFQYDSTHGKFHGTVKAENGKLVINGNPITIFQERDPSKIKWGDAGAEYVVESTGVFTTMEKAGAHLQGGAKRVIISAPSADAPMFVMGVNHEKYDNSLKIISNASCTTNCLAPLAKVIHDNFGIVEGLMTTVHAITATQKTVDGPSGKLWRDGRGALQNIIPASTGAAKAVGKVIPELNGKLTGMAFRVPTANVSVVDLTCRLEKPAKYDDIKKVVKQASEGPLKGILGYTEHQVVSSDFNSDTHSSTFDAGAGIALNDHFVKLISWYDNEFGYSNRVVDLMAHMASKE
Alkaline phosphatase, placental type, sequence (P05187 whole entry): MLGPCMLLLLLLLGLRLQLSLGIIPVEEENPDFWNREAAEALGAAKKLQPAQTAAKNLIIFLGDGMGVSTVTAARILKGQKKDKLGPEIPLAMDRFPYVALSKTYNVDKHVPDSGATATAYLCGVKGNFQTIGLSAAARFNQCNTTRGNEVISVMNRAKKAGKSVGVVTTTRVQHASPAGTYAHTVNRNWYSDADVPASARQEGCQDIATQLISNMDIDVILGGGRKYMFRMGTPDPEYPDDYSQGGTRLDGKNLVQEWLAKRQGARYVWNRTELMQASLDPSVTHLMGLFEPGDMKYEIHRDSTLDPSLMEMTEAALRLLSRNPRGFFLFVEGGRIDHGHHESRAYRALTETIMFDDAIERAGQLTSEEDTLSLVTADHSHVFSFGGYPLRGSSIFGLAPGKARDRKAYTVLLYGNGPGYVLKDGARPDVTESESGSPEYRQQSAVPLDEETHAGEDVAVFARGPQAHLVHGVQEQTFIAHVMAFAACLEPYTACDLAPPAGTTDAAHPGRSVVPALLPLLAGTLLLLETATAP
Nucleotide-binding oligomerization domain-containing protein 2, sequence (Q9HC29 whole entry, the tested form may be a part): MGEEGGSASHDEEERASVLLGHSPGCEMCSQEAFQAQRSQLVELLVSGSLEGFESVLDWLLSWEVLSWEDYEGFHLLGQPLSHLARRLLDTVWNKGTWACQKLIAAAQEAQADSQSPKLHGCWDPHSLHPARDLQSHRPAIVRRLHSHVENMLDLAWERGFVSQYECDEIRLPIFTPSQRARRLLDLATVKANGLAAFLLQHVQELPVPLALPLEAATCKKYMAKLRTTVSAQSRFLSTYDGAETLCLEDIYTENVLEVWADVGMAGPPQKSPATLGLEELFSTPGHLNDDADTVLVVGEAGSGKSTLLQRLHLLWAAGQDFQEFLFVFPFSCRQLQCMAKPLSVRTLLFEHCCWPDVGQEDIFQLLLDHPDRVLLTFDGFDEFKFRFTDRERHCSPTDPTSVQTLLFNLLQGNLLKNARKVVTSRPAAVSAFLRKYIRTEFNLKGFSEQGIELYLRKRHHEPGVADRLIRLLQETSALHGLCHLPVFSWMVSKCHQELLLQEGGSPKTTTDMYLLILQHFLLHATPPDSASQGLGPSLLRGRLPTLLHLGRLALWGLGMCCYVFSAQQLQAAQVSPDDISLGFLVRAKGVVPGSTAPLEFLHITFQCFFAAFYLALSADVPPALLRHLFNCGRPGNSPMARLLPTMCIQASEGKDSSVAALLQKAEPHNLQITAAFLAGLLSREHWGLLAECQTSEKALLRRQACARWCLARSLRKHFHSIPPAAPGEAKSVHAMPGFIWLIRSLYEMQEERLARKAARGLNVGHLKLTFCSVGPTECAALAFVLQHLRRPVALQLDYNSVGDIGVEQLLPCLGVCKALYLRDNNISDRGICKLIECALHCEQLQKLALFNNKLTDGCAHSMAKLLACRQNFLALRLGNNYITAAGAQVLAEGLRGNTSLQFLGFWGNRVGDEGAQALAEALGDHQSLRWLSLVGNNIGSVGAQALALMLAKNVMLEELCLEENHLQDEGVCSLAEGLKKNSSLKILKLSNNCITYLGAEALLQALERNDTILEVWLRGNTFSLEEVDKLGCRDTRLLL
Dual specificity protein phosphatase 3, sequence (P51452 whole entry): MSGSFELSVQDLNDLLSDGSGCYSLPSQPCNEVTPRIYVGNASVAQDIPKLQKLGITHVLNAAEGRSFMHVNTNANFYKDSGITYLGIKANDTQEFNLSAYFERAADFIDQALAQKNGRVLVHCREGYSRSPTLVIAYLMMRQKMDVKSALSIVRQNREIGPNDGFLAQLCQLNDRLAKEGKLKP
Neurotensin receptor type 1, sequence (P30989 whole entry): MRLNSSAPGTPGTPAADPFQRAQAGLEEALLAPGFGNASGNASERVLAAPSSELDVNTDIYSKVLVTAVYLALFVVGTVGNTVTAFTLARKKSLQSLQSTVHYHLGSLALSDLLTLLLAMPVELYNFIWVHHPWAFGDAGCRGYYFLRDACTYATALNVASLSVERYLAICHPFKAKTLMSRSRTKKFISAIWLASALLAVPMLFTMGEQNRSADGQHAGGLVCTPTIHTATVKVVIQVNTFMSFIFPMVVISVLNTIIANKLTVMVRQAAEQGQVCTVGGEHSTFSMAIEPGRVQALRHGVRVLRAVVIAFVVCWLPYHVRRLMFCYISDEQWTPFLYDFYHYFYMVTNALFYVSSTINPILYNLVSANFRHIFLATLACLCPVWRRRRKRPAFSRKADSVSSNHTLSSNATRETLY
Genome polyprotein, sequence (P29990 2492-3391 limits assumed): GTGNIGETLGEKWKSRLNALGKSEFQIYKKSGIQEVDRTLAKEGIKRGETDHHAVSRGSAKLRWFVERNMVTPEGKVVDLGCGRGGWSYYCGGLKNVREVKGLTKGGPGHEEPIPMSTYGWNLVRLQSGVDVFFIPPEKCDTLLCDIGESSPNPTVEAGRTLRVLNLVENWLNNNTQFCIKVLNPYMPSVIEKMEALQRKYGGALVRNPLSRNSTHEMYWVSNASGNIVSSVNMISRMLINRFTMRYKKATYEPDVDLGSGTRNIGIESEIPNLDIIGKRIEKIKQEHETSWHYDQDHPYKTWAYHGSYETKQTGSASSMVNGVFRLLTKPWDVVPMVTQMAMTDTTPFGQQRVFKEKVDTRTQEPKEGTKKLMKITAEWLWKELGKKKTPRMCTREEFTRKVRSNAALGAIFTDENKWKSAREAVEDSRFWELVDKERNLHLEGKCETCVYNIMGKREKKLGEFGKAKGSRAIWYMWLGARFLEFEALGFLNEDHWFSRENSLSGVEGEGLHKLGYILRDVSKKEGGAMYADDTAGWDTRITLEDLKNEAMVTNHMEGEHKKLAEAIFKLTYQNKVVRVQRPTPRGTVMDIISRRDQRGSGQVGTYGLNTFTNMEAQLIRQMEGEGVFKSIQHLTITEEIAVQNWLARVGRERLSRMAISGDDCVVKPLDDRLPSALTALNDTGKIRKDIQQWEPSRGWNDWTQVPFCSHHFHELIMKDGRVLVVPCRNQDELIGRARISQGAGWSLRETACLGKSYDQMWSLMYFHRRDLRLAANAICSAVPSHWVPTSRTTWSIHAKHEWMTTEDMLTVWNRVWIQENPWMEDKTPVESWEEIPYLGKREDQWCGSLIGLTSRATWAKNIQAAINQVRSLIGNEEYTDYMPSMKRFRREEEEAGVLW
Estrogen receptor beta, sequence (Q92731 whole entry): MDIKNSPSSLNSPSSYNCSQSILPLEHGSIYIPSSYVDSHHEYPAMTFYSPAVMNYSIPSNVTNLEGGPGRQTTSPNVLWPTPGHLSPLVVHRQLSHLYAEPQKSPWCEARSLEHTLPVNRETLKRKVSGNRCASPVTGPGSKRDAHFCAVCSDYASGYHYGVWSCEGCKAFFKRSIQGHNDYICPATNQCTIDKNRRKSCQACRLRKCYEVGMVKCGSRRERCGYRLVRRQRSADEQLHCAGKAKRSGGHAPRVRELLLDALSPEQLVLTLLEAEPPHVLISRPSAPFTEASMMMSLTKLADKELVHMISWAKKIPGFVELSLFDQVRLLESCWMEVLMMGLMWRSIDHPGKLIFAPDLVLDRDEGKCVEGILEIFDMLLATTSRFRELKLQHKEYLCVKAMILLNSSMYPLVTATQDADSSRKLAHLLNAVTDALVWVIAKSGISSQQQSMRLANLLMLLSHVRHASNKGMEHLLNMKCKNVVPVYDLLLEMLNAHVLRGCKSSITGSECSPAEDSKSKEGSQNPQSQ
Ephrin type-A receptor 4, sequence (Q03137 whole entry): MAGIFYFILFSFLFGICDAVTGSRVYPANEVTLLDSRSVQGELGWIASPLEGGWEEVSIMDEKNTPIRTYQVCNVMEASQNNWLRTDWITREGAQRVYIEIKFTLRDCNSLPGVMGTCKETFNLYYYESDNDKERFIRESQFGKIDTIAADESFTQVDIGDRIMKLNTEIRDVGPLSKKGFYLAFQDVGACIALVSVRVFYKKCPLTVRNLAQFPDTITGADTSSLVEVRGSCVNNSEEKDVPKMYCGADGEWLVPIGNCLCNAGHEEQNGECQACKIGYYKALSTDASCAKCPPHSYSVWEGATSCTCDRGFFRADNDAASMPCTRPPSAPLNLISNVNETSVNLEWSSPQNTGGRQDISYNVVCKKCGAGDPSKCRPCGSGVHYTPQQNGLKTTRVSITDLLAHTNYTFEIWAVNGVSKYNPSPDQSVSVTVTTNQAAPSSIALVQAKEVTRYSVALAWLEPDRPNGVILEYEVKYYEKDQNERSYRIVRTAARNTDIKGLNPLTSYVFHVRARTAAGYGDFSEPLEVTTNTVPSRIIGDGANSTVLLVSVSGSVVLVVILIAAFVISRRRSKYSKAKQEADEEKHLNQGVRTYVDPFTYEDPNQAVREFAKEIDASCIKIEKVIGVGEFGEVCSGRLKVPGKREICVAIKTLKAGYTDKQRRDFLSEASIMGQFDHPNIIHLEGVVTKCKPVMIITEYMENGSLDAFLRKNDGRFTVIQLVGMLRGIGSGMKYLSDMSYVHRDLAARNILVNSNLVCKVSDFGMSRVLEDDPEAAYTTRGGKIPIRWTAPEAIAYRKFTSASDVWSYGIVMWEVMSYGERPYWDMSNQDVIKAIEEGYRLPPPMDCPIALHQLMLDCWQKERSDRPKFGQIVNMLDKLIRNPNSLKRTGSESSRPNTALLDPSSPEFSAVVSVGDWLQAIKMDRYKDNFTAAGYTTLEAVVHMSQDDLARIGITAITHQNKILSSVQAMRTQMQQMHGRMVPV

SMILES: Nc1ncnc(Nc2ccccn2)c1[N+](=O)[O-]
IC50 [1]: 17.6 µM (inactive)
IC50 [2]: 7.86 µM (active)
IC50 [3]: > 20 µM (inactive)
IC50 [4]: > 20 µM (inactive)
EC50 [5]: 17.8 µM (active)
EC50 [6]: 18.8 µM (active)

SMILES: c1ccc2c(CNC34CC5CC(CC(C5)C3)C4)c[nH]c2c1
Ki [7]: 32.9 µM (inactive)

SMILES: COc1ccccc1N1C(=O)C2CCC(c3ccccc3)CC2C1=O (centres undefined)
IC50 [8]: > 100 µM (inactive)
IC50 [9]: > 100 µM (inactive)

IC50 [10]: > 100 µM (inactive)
IC50 [11]: > 100 µM (not active)
IC50 [12]: > 100 µM (inactive)
IC50 [13]: > 100 µM (not active)
SMILES: NC(=O)[C@H](Cc1ccccc1)n1c(=O)[nH]c(=O)n(-c2ccc(Cl)cc2)c1=O

IC50 [14]: 2.59 µM (not active)
IC50 [15]: 3.16 µM (active)
IC50 [16]: 1.05 µM (active)
IC50 [17]: 21.3 µM (active)
IC50 [18]: 59.1 µM (active)
SMILES: O=C(NCCc1ccccc1)c1ccc2nc(-c3ccco3)c(-c3ccco3)nc2c1

IC50 [19]: > 100 µM (inactive)
IC50 [20]: > 100 µM (inactive)
IC50 [13]: > 100 µM (not active)
SMILES: COc1ccccc1-c1nc(SCc2cccc(Br)c2)n[nH]1

IC50 [19]: 4 µM (active)
IC50 [20]: 0.308 µM (active)
IC50 [13]: > 100 µM (not active)
SMILES: O=C1C2CC=CCC2C(=O)N1c1n[nH]c(-c2ccccc2)n1 (centres undefined)

SMILES: COC(=O)C(=Cc1ccc(OCc2ccc([N+](=O)[O-])cc2)c(OC)c1)C(=O)OC
IC50 [1]: 8.46 µM (active)
IC50 [2]: 4.31 µM (active)
CC50 [21]: 6.91 µM (active)
IC50 [4]: > 20 µM (inactive)
EC50 [22]: 5.98 µM (active)
EC50 [5]: > 20 µM (inactive)

SMILES: O=C1C=CC(=O)N1Nc1c(Cl)cc(Cl)cc1Cl
Ki [7]: 33.7 µM (inactive)

AC50 [23]: 11.2 µM (inconclusive)
EC50 [22]: 3.89 µM (active)
EC50 [24]: 6.52 µM (inconclusive)
SMILES: CCOC(=O)COc1ccc(/C=C/[N+](=O)[O-])c(OCC(=O)OCC)c1

SMILES: Cc1[nH]n(-c2ccccc2)c(=O)c1/C=N/NC(=O)c1cccc(F)c1
IC50 [1]: > 20 µM (inactive)
EC50 [25]: 7.25 µM (active)
EC50 [26]: 4.31 µM (active)
IC50 [2]: > 20 µM (inactive)
IC50 [3]: > 20 µM (inactive)
IC50 [27]: 7.78 µM (active)
IC50 [4]: > 20 µM (inactive)
AC50 [28]: 2.03 µM (active)
EC50 [5]: 8.44 µM (active)
EC50 [6]: > 20 µM (inactive)
